Test results: patent US20070167499A1, “Biaryl linked hydroxamates: preparation and pharmaceutical applications” (A*BIO Pte Ltd., priority 2003, published 2007)

Tested on: Ramos Burkitt-lymphoma cells
Assay: Apoptosis assay (Annexin V / PI flow cytometry)
Assay type: cell-based, human
Details: 48 h after treatment with 10 μM
Description: In various therapies such as for proliferative disorders like cancer, the selective induction of apoptosis in proliferating cells such as tumor cells is one of the desirable approaches, and can be mediated by treatment with various anti-proliferative compounds [Blagosklonny MV, Oncogene, 23(16): 2967 (2004); Kaufmann and Eamshaw, Exp Cell Res. 256(1): 42-9 (2000)]. Programmed cell death or apoptosis is the cellular response to stress factors such as DNA damage introduced during conventional anti-cancer treatment. The concerted sequence of events during apoptosis, clearly differentiate this pathway from a non-coordinated form of cell death called necrosis. During the course of apoptosis, characteristic phenotypical cellular changes occur, which include the condensation of chromatin, the shrinkage of cells and finally the fragmentation of chromosomal DNA. One of the very early change caused by apoptotic events occurs in the phospholipids bilayer of the plasma membrane. The phospholipid phosphatidylserine is translocated from the inner to the outer side of the plasma-membrane and, as a result, is exposed to the extracellular space. One way of detecting early apoptotic cells is to determine the amount of phosphatidyl-serine at the extracellular side of the plasma-membrane which is accomplished by the standard flow cytometric method of Annexin V staining. The phospholipids recognizing protein Annexin V binds with high affinity to these inverted and exposed phosphatidyl-serines.
The ability of the compounds in this invention to induce apoptosis was tested in Ramos Burkitt-lymphoma cells. This cell line is one of the gold standard cell lines commonly used as a tissue culture model for B cell lymphoma. Representative compounds as indicated below were added to 80,000 cells per 500 μl growth medium (RPMI1640 medium supplemented with 2 mM L-Glutamine, 10% heat-inactivated FBS, 1 mM Na-Pyruvate and 10 mM HEPES) in 24 well format at various concentrations. Two days after the start of treatment, cells were collected and subjected to the Annexin V staining protocol following the instructions of the manufacturer (BD Biosciences). By using propidium iodide (PI) as a viability control, cells that stain positive for Annexin V, but negative for PI, are undergoing apoptosis.

With `O=C(Cc1ccc(-c2csc(NC(=O)Cc3ccccc3)n2)s1)NO` [Example 1, N-Hydroxy-2-[5-(2-phenylacetylamino-thiazol-4-yl)-thiophen-2-yl]-acetamide] the “% cells in late apoptosis (Ramos)” value was 76%.
